What was measured:
[1] = molecular target: ternary complex comprising RAS and CypA; KRAS^WT (Homo sapiens, UniProt P01116+P62937); experiment: Ternary complex binding assay (BLI), KRAS WT; conditions: GMPPNP-loaded KRAS^WT, fixed concentration of CypA, pH 7.4, read-out: KD2 (ternary complex equilibrium dissociation constant)
Procedure: (§1) To evaluate the ability of the test compounds to induce the formation of a ternary complex comprising RAS and CypA, we employed a Bio-layer Interferometry (BLI) method (Octet R8) to monitor the binding kinetics among the compounds, RAS, and CypA, and to calculate the affinity of the ternary complex. GMPPNP was first incubated with RAS protein to load GMPPNP onto RAS. His-tagged RAS proteins with different mutations were then immobilized on NTA sensors, followed by baseline equilibration for 120 seconds in the assay buffer (20 mM HEPES, pH 7.4, 150 mM NaCl, 5 mM MgCl2, 1 mM TCEP, 5 μM GMPPNP, 0.01% Tween 20). The sensors were subsequently exposed to buffer containing various concentrations of the compounds and a fixed concentration of CypA, and the association phase of ternary complex formation was monitored in real time. Once binding reached a plateau, the sensors were transferred to compound- and CypA-free buffer to measure the dissociation phase. To ensure accuracy, DMSO normalization was performed, buffer composition was optimized to reduce non-specific binding, and both negative and positive controls were employed to verify assay specificity. Data were processed using Octet Analysis Studio 13.0, analyzed using a 1:1 binding model, and the association rate constant (ka), dissociation rate constant (kdis), and equilibrium dissociation constant (KD2) were calculated.

cyclophilin A (CypA) = molecular target: T1, cyclophilin A (CypA) (Homo sapiens, UniProt P62937); experiment: Binary complex binding assay (BLI); conditions: His-tagged CypA, pH 7.4, 1:1 binding model; for Kd: read-out: KD1 (binary complex equilibrium dissociation constant); for kon: read-out: ka (association rate constant); for koff: read-out: kdis (dissociation rate constant)
T1 construct: purchased R&D 3589-CAB
Procedure: To evaluate the binding ability of the test compounds to cyclophilin A (CypA), we employed a Bio-layer Interferometry (BLI) method (Octet R8) to monitor the binding kinetics between the compounds and CypA, and to calculate the affinity of the binary complex. His-tagged CypA protein (3589-CAB, R&D) was first immobilized on an NTA sensor, followed by baseline equilibration for 120 seconds in the assay buffer (20 mM HEPES, pH 7.4, 150 mM NaCl, 5 mM MgCl2, 1 mM TCEP, 0.01% Tween 20). The sensor was then exposed to buffer solutions containing different concentrations of the compounds to monitor the association process in real time. When the high-concentration compound binding reached a plateau, the sensor was transferred to compound-free buffer to measure the dissociation process. To ensure data accuracy, DMSO normalization was performed, non-specific binding was minimized by buffer optimization, and negative and positive controls were set to verify assay specificity. Data were processed using Octet Analysis Studio 13.0, analyzed using a 1:1 binding model, and the association rate constant (ka), dissociation rate constant (kdis), and equilibrium dissociation constant (KD1) were calculated.

[2] = molecular target: ternary complex comprising RAS and CypA; KRAS^G12V (Homo sapiens, UniProt P01116+P62937, G12V); experiment: Ternary complex binding assay (BLI), KRAS G12V; conditions: GMPPNP-loaded KRAS^G12V, fixed concentration of CypA, pH 7.4, read-out: KD2 (ternary complex equilibrium dissociation constant)
Procedure: as §1

HCT116 = experiment: In vitro cell proliferation inhibition assay (CellTiter-Glo), HCT116; type: cell-based; conditions: HCT116, KRAS (p.G13D), 72 h; read-out: IC50, antiproliferative activity
Procedure: (§2) Due to the diversity of RAS mutations, and in order to evaluate the activity of the compounds in different RAS mutant cell lines, we selected cell lines with KRAS^G12D, KRAS^G12V, KRAS^G12c, NRAS^q61L, KRAS^G13D, KRAS^G12R, and KRAS^WT mutations (see the table below for in vitro activity evaluation and screening of the compounds.
(§3) According to the doubling time of different cell lines, different numbers of cells (1000-5000 cells/well) were seeded into 96-well plates containing 180 μL of the corresponding culture medium, and incubated overnight in a cell incubator at 37 °C with 5% C02. On the following day, the test compounds were pre-diluted in the culture medium in a 3-fold serial dilution series, with the highest concentration being […], resulting in 10 concentration gradients in total. Subsequently, 20 μL of culture medium containing the compounds at different concentrations was added to the cells in the 96-well plates, ensuring a final compound concentration of up to 10 μM, with 10 concentrations in 3-fold dilution. After co-incubation of the cells with the compounds for 72 h, the 96-well plates were removed from the incubator and equilibrated at room temperature for 30 min. Then, 25 μL of CellTiter-Glo® Reagent was added to each well and mixed thoroughly, followed by incubation at room temperature for 10 min. Subsequently, 100 μL of the samples was transferred to white 96-well plates (OptiPlate™-96, PerkinElmer), and […] signal values were read using a multifunctional microplate reader (SpectraMax i3x, Molecular Devices). The signal values were then normalized, and curve fitting was performed using a four-parameter logistic regression equation to calculate the half maximal inhibitory concentration (IC50) of the compounds against the cell lines.

[3] = Pharmacokinetic study in mice; type: in vivo; conditions: mouse, male CD-1 mice; for bioavailability: blood; for bioavailability / AUC / Cmax: po; for Vd / clearance: iv; for Vd / clearance / AUC / Cmax: whole blood
Procedure: To evaluate the pharmacokinetic behavior of the compounds of the disclosure in male CD-1 mice, the test compounds were dissolved in a solvent (5% DMSO/10% solutol/85% water). Twelve male CD-1 mice were divided into two groups, with six animals in each group. Group 1 received a single intravenous bolus (i.v.) administration of the compound, and Group 2 received a single oral (p.o.) administration of the compound. Whole blood samples were collected at 0.083 h (intravenous group only), 0.25, 0.5, 1, 2, 4, 8, and 24 hours after dosing. The concentration of the test compound in whole blood samples was determined using the LC-MS/MS method.

MV411 = experiment: In vitro cell proliferation inhibition assay (CellTiter-Glo), MV411; type: cell-based; conditions: MV411, KRAS wild type, 72 h; read-out: IC50, antiproliferative activity
Procedure: as §3

H358 = experiment: In vitro cell proliferation inhibition assay (CellTiter-Glo), H358; type: cell-based; conditions: H358, KRAS (p.G12C), 72 h; read-out: IC50, antiproliferative activity
Procedure: as §2, §3

HepG2 = experiment: In vitro cell proliferation inhibition assay (CellTiter-Glo), HepG2; type: cell-based; conditions: HepG2, NRAS (p.Q61L), 72 h; read-out: IC50, antiproliferative activity
Procedure: as §2, §3

AsPC-1 = experiment: In vitro cell proliferation inhibition assay (CellTiter-Glo), AsPC-1; type: cell-based; conditions: AsPC-1, KRAS (p.G12D), 72 h; read-out: IC50, antiproliferative activity
Procedure: as §2, §3

SW480 = experiment: In vitro cell proliferation inhibition assay (CellTiter-Glo), SW480; type: cell-based; conditions: SW480, KRAS (p.G12V), 72 h; read-out: IC50, antiproliferative activity
Procedure: as §2, §3

[4] = molecular target: ternary complex comprising RAS and CypA; KRAS^G12D (Homo sapiens, UniProt P01116+P62937, G12D); experiment: Ternary complex binding assay (BLI), KRAS G12D; conditions: GMPPNP-loaded KRAS^G12D, fixed concentration of CypA, pH 7.4, read-out: KD2 (ternary complex equilibrium dissociation constant)
Procedure: as §1

PSN1 = experiment: In vitro cell proliferation inhibition assay (CellTiter-Glo), PSN1; type: cell-based; conditions: PSN1, KRAS (p.G12R), 72 h; read-out: IC50, antiproliferative activity
Procedure: as §2, §3

T1 sequence (P62937 whole entry): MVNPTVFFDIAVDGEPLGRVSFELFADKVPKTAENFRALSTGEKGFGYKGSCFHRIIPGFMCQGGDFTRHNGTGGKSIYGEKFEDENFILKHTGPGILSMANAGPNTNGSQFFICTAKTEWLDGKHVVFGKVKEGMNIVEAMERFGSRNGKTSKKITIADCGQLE
Chain of ternary complex comprising RAS and CypA; KRAS^WT (P01116 1-188 isoform P01116-2): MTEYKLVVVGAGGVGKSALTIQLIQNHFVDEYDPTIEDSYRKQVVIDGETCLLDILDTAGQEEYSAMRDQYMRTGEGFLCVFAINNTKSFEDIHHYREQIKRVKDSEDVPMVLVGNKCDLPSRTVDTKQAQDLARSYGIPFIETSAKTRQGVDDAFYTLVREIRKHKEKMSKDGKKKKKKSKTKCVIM
Chain of ternary complex comprising RAS and CypA; KRAS^WT (P62937 whole entry): as the sequence (P62937 whole entry) above
Chain of ternary complex comprising RAS and CypA; KRAS^G12D (P01116 1-188 isoform P01116-2 G12D): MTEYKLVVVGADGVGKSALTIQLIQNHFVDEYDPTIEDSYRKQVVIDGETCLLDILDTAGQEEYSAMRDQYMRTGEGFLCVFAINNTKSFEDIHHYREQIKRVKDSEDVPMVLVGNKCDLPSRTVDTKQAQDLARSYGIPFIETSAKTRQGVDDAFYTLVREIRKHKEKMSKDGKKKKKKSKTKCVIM
Chain of ternary complex comprising RAS and CypA; KRAS^G12D (P62937 whole entry): as the sequence (P62937 whole entry) above
Chain of ternary complex comprising RAS and CypA; KRAS^G12V (P01116 1-188 isoform P01116-2 G12V): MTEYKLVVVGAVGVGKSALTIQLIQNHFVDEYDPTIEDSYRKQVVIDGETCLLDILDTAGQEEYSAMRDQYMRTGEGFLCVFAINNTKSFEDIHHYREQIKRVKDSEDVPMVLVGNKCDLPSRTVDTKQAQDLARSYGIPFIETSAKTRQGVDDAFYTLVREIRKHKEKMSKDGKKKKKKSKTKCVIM
Chain of ternary complex comprising RAS and CypA; KRAS^G12V (P62937 whole entry): as the sequence (P62937 whole entry) above

Kd [1]	Kd (cyclophilin A (CypA))	kon (cyclophilin A (CypA))	koff (cyclophilin A (CypA))	Kd [2]	IC50 (HCT116)	IC50 (MV411)	IC50 (H358)	IC50 (HepG2)	IC50 (AsPC-1)	IC50 (SW480)	Kd [4]	SMILES	IC50 (PSN1)	also measured
16 nM	3 nM	130000 M⁻¹ s⁻¹	0.0004 s⁻¹	26 nM	0.44 nM	0.12 nM	0.007 nM	0.04 nM	0.02 nM	0.03 nM	24 nM	CO[C@@H](C)c1ncc(-c2nnc(C3CCN(C4COC4)CC3)o2)cc1-c1c2c3cc(ccc3n1CC(F)(F)F)-c1csc(n1)C[C@H](NC(=O)[C@H]1[C@H](C)[C@@H]1C)C(=O)N1CCC[C@H](N1)C(=O)OCC(C)(C)C2 (atropisomer, axis not shown) [Compound 6, (1r,2R,3S)—N-((6^3S,4S,Z)-1^2-(2-((S)-1-methoxyethyl)-5-(5-(1-(oxetan-3-yl)piperidin-4-yl)-1,3,4-oxadiazol-2-yl)pyridin-3-yl)-10,10-dimethyl-5,7-dioxo-1^1-(2,2,2-trifluoroethyl)-6^1,6^2,6^3,6^4,6^5,6^6-hexahydro-1^1H-8-oxa-2(4,2)-thiazola-1(5,3)-indola-6(1,3)-pyridazinacycloundecaphane-4-yl)-2,3-dimethylcyclopropane-1-carboxamide]	0.04 nM	bioavailability ([3]; i.v. 1 mpk, p.o. 2 mpk): 43.1%; Vd ([3]; 1 mg/kg, i.v. 1 mpk): 1.14 L/kg; clearance ([3]; 1 mg/kg, i.v. 1 mpk): 2.6 mL/min/kg; AUC ([3]; 2 mg/kg, p.o. 2 mpk): 5630 ng·h/mL; Cmax ([3]; 2 mg/kg, p.o. 2 mpk): 439 ng/mL
9.3 nM	2.7 nM		0.00057 s⁻¹	12 nM	0.14 nM	0.42 nM	0.021 nM	0.1 nM	0.005 nM	0.01 nM	17 nM	CO[C@@H](C)c1ncc(-c2nnc(C3CCN(C4CN(C(C)C)C4)CC3)o2)cc1-c1c2c3cc(ccc3n1CC(F)(F)F)-c1csc(n1)C[C@H](NC(=O)[C@H]1[C@H](C)[C@@H]1C)C(=O)N1CCC[C@H](N1)C(=O)OCC(C)(C)C2 (atropisomer, axis not shown) [Compound 10, (1r,2R,3S)—N-((6^3S,4S,Z)-1^2-(5-(5-(1-(1-isopropylazetidin-3-yl)piperidin-4-yl)-1,3,4-oxadiazol-2-yl)-2-((S)-1-methoxyethyl)pyridin-3-yl)-10,10-dimethyl-5,7-dioxo-1^1-(2,2,2-trifluoroethyl)-6^1,6^2,6^3,6^4,6^5,6^6-hexahydro-1^1H-8-oxa-2(4,2)-thiazola-1(5,3)-indola-6(1,3)-pyridazinacycloundecaphane-4-yl)-2,3-dimethylcyclopropane-1-carboxamide]	0.07 nM	ka (association rate constant) (cyclophilin A (CypA)): 2.1E+05 1/[M*s]
10 nM	2 nM	330000 M⁻¹ s⁻¹	0.00066 s⁻¹	8.3 nM	0.03 nM	0.07 nM	0.01 nM	0.02 nM	0.01 nM	0.01 nM	8.8 nM	CO[C@@H](C)c1ncc(-c2nnc(C3CCN(C4COC4)CC3)o2)cc1-c1c2c3cc(ccc3n1CC(F)(F)F)-c1csc(n1)C[C@H](NC(=O)C1[C@@H](C)[C@H]1C)C(=O)N1N[C@H](C(=O)OCC(C)(C)C2)C2CC1C2 (stereo partly shown) [Compound 8]	0.01 nM	bioavailability ([3]; i.v. 0.25 mpk, p.o. 0.5 mpk): 54.6%; Vd ([3]; i.v. 0.25 mpk): 1.84 L/kg; clearance ([3]; i.v. 0.25 mpk): 1.8 mL/min/kg; AUC ([3]; 0.5 mg/kg, p.o. 0.5 mpk): 2590 ng·h/mL; Cmax ([3]; 0.5 mg/kg, p.o. 0.5 mpk): 96 ng/mL

From patent US20260355191A1, “PAN-RAS INHIBITOR COMPOUND” (ADLAI NORTYE BIOPHARMA CO., LTD., priority 2024, published 2026)
